PMC11851430, “Workflow for E3 Ligase Ligand Validation for PROTAC Development” (ACS Chemical Biology, 2025)

Columns and labels:
FGFR1B = molecular target: T1, FGFR1B (Homo sapiens, UniProt P11362); experiment: DSF assay; type: binding; settings: 20 µM compound
T1 construct: purchased in-house DSF panel (SGC-style construct names; the trailing A/B is a construct suffix)

MAPK1A = molecular target: T2, MAPK1A (Homo sapiens, UniProt P28482); experiment: DSF assay; type: binding; settings: 20 µM compound
T2 construct: purchased in-house DSF panel (SGC-style construct names; the trailing A/B is a construct suffix)

Jurkat cells = experiment: CellTiterGlo cell viability assay; type: cell-based, human; settings: 24 h, mean of triplicates, ^b/^c values estimated
Procedure, shortened: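 Jurkat cells treated with compound titrations; viability read by CellTiter-Glo 2.0 luminescence after 10 min at room temperature, fitted to a four-parameter curve. Proteomics samples lysed in 2% SDS, 50 mM Tris pH 8.5, TCEP and CAA, sonicated, then analysed by label-free quantitation.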

[1] = molecular target: T3, kinase protein levels in MCF-7 cells (Homo sapiens, UniProt A0A096LP01); experiment: TMT-labeled quantitative proteomics; type: cell-based; settings: protein LINC00493
T3 construct: endogenous in cells; host or cells: MCF-7

[2] = tested on: kinase protein levels in MCF-7 cells; experiment: TMT-labeled quantitative proteomics; type: cell-based, human
full-length AAK1 = full-length AAK1 (Homo sapiens, UniProt Q2M2I8); experiment: NanoBRET target engagement assay, intact and permeabilized cells; settings: NanoBRET, mean of duplicates
Sequence of full-length AAK1 (Q2M2I8 whole entry): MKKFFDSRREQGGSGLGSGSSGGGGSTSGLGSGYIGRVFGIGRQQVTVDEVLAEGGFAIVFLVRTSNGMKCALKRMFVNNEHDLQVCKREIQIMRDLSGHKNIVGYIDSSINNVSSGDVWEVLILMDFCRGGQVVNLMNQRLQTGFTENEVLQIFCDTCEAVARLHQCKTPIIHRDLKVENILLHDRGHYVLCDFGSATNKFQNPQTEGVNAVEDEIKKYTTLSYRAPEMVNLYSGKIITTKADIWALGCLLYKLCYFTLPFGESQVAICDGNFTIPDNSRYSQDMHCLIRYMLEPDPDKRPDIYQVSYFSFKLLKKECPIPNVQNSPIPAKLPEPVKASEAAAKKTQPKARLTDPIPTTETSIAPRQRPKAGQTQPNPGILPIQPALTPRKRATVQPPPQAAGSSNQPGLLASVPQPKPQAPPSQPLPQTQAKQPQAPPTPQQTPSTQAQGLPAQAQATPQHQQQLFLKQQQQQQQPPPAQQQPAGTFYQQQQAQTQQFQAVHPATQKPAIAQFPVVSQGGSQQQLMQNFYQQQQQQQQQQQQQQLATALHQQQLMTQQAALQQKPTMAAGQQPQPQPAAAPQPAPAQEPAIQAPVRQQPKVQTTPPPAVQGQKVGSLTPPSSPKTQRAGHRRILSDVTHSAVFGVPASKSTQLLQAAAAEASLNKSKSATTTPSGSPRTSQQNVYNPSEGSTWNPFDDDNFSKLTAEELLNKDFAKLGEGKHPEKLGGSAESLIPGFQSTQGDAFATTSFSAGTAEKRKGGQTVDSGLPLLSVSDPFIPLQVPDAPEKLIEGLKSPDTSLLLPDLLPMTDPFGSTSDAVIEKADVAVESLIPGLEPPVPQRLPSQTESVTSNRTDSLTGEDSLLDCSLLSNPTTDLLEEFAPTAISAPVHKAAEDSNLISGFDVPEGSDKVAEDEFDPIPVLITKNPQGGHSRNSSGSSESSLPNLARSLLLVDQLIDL
Protocol: Compounds were pipetted at various concentrations using an Echo acoustic dispenser (Labcyte), immediately followed by Tracer K10 (Promega, Tracer DB ID: T000008) for AAK1 and Aurora A and VHL Tracer (Promega, Tracer DB ID: T000019) for VHL, at an optimum KD concentration chosen from TracerDB ( tracerdb.org), respectively.
To measure the BRET signal, the NanoBRET® NanoGlo Substrate (Promega:
N1573) was added as per the manufacturer’s protocol, and filtered luminescence was measured on a PHERAstar plate reader (BMG Labtech) equipped with a luminescence filter pair (450 nm BP filter (donor) and 610 nm LP filter (acceptor)). For NanoBRET® measurement in permeabilized cells, 25 nL of digitonin (0.05 μg/μL) was pipetted into each well using an
After incubation, the BRET signals were measured by a PHERAstar plate reader (BMG Labtech) following the same procedure as intact NanoBRET® measurement. Competitive displacement data were then normalized to controls and were plotted using GraphPad Prism 9 software employing a normalized 3-parameter curve fit with the following equation:

T3 sequence (A0A096LP01 whole entry): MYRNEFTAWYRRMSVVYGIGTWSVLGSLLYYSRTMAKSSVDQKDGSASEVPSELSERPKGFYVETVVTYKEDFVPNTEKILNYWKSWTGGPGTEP
T1 sequence (P11362 456-767): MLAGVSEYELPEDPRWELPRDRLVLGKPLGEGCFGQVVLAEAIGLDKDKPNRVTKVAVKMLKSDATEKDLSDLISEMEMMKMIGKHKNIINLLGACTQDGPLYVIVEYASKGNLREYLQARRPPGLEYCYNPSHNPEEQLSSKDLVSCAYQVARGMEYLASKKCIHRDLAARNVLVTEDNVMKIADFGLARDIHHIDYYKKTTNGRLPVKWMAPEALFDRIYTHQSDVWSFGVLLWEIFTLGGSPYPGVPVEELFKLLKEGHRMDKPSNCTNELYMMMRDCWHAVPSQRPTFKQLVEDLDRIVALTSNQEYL
T2 sequence (P28482 whole entry): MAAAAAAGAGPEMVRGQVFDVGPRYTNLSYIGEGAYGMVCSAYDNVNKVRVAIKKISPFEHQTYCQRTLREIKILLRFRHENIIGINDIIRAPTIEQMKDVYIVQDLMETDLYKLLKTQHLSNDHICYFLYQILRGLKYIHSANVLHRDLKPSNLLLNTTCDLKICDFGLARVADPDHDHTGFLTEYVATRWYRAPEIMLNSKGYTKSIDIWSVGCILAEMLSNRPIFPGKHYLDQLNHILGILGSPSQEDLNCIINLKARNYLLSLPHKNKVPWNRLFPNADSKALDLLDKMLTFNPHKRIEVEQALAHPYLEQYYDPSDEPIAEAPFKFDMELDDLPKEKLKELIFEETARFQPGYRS

ΔTm at 20 µM (FGFR1B): 5.22 °C
ΔTm at 20 µM (MAPK1A): 4.85 °C
IC50±sd/μM (cell viability) (Jurkat cells): single-digit micromolar
IC50 (Jurkat cells; Homo sapiens, read-out: IC50±sd/μM (cell viability)): 3.1 ± 1 µM
P.Value (compound/DMSO) ([1]; MCF7, 2.5 µM, set3): 0.03457
log2FC (compound/DMSO) ([1]; MCF7, 2.5 µM, set3): -0.4501
P.Value (compound/DMSO) ([1]; MCF, 0.25µM, set4): 0.002655
log2FC (compound/DMSO) ([1]; MCF, 0.25µM, set4): 0.2815
IC50 (full-length AAK1; AAK1 intact (IC50±sd)/μM, intact cells, ^a values estimated by extrapolation): 0.012 ± 0.002 µM
IC50 (full-length AAK1; AAK1 permeabilized (IC50±sd)/μM, permeabilized cells): 0.015 ± 0.002 µM
SMILES: CCOC(=O)c1cc(Nc2cc(C3CC3)[nH]n2)nc(Nc2ccc(CC#N)cc2)n1 [compound 5]
kinase downregulation profile compared with Jurkat cells ([2]; MCF-7 cells, 0.25 μM, 6 h): comparable downregulation profiles
log2FC (compound/DMSO) ([2]; protein NBPF19;NBPF8;NBPF10;NBPF15;NBPF26;NBPF14;NBPF1;NBPF12, MCF, 0.25µM, set4): 0.03286
log2FC (compound/DMSO) ([2]; protein NBPF19;NBPF8;NBPF26;NBPF14;NBPF12;NBPF10;NBPF15;NBPF1, MCF7, 2.5 µM, set3): -0.1342
log2FC (compound/DMSO) ([2]; protein NUDT4;NUDT11;NUDT10, MCF, 0.25µM, set4): 0.03432
log2FC (compound/DMSO) ([2]; protein UQCRHL;UQCRH, MCF, 0.25µM, set4): 0.1631
